{"source": "PubChem BioAssay AID652152", "about": "(Johns Hopkins Ion Channel Center, 2013)", "note": "The source made the active and inactive calls. How the calls were made is not given here."}
{"target": "Potassium voltage-gated channel subfamily KQT member 2 (Rattus norvegicus) (UniProt O88943)", "sequence (O88943 whole entry, looked up)": "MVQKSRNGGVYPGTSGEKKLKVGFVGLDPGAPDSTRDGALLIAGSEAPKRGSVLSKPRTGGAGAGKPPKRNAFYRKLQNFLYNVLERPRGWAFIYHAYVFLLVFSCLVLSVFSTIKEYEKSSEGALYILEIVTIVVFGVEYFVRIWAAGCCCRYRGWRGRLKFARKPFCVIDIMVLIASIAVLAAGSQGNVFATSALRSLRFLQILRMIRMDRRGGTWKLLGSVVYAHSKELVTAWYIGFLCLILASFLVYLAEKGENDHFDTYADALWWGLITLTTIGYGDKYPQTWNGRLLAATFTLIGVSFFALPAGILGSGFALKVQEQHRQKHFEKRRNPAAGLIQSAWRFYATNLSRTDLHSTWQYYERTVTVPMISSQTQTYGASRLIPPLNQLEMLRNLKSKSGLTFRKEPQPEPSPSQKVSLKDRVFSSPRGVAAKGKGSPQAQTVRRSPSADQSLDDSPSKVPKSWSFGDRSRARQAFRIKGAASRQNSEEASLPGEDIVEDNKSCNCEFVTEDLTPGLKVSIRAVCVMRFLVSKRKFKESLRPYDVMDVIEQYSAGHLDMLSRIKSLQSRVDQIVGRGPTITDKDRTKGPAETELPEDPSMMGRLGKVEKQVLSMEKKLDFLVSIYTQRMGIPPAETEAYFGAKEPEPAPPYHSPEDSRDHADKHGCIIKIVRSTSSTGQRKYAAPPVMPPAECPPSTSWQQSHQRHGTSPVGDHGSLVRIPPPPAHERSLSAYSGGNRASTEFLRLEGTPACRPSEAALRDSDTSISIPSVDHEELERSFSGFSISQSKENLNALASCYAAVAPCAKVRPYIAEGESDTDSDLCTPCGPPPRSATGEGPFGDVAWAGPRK", "experiment": "block of rat KCNQ2 potassium current – cell-based, automated electrophysiology, SAR follow-up (AID 652152)", "conditions": "KCNQ2-expressing cells, automated patch-clamp current", "units": {"IC50": "nM"}}
{"smiles": "CC[C@H](C(=O)Nc1ccccc1N1CC[C@H](F)C1)c1ccccc1", "IC50": 210}
{"smiles": "CC[C@H](C(=O)Nc1ccccc1N1CCN(c2ccncc2C)CC1)c1ccccc1", "IC50": 21200}
{"smiles": "CC[C@H](C(=O)Nc1ccccc1N1CC(c2ccc(Cl)cc2)C1)c1ccccc1", "IC50": 890}
{"smiles": "CC[C@H](C(=O)Nc1ccc(N2CC[C@H](F)C2)cc1)c1ccccc1", "IC50": 120}
{"smiles": "CC[C@H](C(=O)Nc1ccccc1N1CCC(F)(F)CC1)c1ccccc1", "IC50": 2800}
{"smiles": "CC[C@H](C(=O)Nc1ccc(N2CCC(F)(F)CC2)cc1)c1ccccc1", "IC50": 750}
{"target": "Potassium voltage-gated channel subfamily KQT member 2 (Rattus norvegicus) (UniProt O88943)", "experiment": "block of rat KCNQ2 potassium current – cell-based, automated electrophysiology, SAR follow-up (AID 652152)", "conditions": "KCNQ2-expressing cells, automated patch-clamp current; at 30 µM (top of the series)"}
{"smiles": "CC[C@H](C(=O)Nc1ccc(N2CCN(c3cc(C(F)(F)F)ccn3)CC2)cc1)c1ccccc1", "inhibition": "inactive"}
{"smiles": "CC[C@H](C(=O)Nc1ccc(N2CCN(c3ccncc3C)CC2)cc1)c1ccccc1", "inhibition": "inactive"}
{"smiles": "CC[C@H](C(=O)Nc1ccc(N2CCCC(F)C2)cc1)c1ccccc1", "note": "(stereo not given in full)", "inhibition": "inactive"}
{"smiles": "CC[C@H](C(=O)Nc1ccc(N2CC(c3ccc(Cl)cc3)C2)cc1)c1ccccc1", "inhibition": "inactive"}
